Our source for the % of control values is ChEMBL document CHEMBL5465560, “Selectivity Literature for EUbOPEN Chemogenomic Library” (2024).

Details in all cases: at 1 µM
For test [1], the system named is T1, Receptor-type tyrosine-protein kinase FLT3 (Homo sapiens), P36888 [D835V].
T1 sequence (whole entry): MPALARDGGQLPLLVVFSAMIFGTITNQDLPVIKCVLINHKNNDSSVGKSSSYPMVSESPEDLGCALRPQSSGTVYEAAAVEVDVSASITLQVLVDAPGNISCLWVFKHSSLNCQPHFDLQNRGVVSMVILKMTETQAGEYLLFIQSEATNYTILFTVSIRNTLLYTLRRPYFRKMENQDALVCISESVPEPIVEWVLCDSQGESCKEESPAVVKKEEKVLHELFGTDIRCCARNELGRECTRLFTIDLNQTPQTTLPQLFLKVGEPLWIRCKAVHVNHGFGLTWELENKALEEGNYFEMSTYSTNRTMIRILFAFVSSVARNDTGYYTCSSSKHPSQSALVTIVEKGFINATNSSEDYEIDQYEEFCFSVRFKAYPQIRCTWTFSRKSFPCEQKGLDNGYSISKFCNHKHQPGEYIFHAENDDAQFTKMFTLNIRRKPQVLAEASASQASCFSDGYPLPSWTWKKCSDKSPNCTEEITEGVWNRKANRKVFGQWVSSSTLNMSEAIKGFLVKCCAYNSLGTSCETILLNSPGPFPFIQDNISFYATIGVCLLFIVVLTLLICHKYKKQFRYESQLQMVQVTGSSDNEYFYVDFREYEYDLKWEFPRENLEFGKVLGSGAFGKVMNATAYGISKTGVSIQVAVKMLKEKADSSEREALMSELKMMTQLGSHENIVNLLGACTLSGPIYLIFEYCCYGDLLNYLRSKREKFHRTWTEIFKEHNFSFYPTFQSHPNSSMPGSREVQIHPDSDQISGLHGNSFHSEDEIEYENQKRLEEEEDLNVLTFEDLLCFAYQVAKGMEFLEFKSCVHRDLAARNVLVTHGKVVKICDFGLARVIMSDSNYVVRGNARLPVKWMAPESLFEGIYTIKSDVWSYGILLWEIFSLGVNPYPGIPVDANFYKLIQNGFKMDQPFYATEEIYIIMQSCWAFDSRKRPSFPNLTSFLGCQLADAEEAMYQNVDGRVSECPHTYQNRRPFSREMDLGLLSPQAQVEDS
The experiment in a line: (§1) Selectivity interaction (KinomeScan (DiscoverX)) EUB0001049a FLT3.

Test [2] deals with T2, Receptor-type tyrosine-protein kinase FLT3 (Homo sapiens), P36888 [D835Y].
T2 sequence (whole entry): T1 sequence (whole entry) with V835Y
The description is as §1.

Test [3] relates to T3, Receptor-type tyrosine-protein kinase FLT3 (Homo sapiens), P36888 [R834Q].
T3 sequence (whole entry): T1 sequence (whole entry) with R834Q, V835D
Described as §1.

The test system of test [4] is Receptor-type tyrosine-protein kinase FLT3 (Homo sapiens), P36888 [UNDEFINED MUTATION]. The test is described as §1.

Where a chain is given by its changes, count along the chain named.

`COc1cc(Nc2nc(C)cc(-c3cnn4nc(OC)ccc34)n2)cc(C(F)(F)F)c1`: the % of control amounted to 86% in test [1], 79% in test [2], 100% in test [3] and 81% in test [4].
